From a melting point compilation (Tetko et al.; mined from patent text by program, amines drawn as free bases though some values may be those of a salt) come the findings set out here.

Each structure is given as a SMILES string.

The melting point is the temperature, or range, at which the solid turns liquid. Take `CC1(NCC(O)c2ccc3nnnn3c2)CC1` (stereo not given): the melting point lay in the range of 72 to 73 °C.
`CS(=O)(=O)c1ccc(/C(=C\CC2CCCC2)C(=O)O)cc1` had a melting point of 162 to 165 °C.
`Cc1cc(C2=CCCCC2)c(OP2OCC(C)(C)CO2)c(C(C)(C)C)c1` returned a melting point of 97 to 102 °C.
Regarding `CCNC(=O)CCCC1CCN(Cc2cnc3cc(NC(=O)c4ccc(-c5ccc(F)cc5)cc4)c(C)cc3c2)CC1`, the melting point is 240 °C.
The value for `COC(=O)[C@@H]1C[C@@H](OS(C)(=O)=O)CN1C(=O)OC(C)(C)C` was 86 to 87 °C.
The value for `O=C(NCc1ccc(Cl)cc1)c1cnc2c(I)cc(CC3CCOCC3)cc2c1O` was 257 to 259 °C.
As for `Oc1ccc(CCNCC(O)c2ccc(OCc3ccccc3)cc2)cc1OCc1ccccc1` (stereo not given), the melting point lay in the range of 124 to 125 °C.
Under `O=C(CCCCN1CCN(c2cccc(Cl)c2Cl)CC1)N1CCc2ccccc21` stands 121 to 123 °C.
On to `Cc1cn(-c2nc(C3=Nc4ccc(-c5ccccc5F)cc4NC(=O)C3)cs2)cn1`, for which the melting point amounted to 229 °C.
Under `CC(C)(C)OC(=O)N1CCC(c2nc3ccc(-c4ccc(S(C)(=O)=O)cc4F)cc3o2)CC1` stands 174 to 178 °C; under `CCCNC(=O)C(CC)Cc1ccc2c(c1)c(Cc1ccc(C(=O)NS(=O)(=O)c3ccccc3C)cc1OC)cn2CCC` (stereo not given), 93 to 105 °C; under `COc1ccccc1C(=O)C=CC(=O)O`, 146 to 148 °C.
In turn, `Clc1ccc([C@H]2CC[C@H](CBr)CC2)cc1` yielded a melting point of 36 to 38 °C.
`CCOC(=O)C(C)(C(=O)OCC)c1cccc(C(=O)c2ccccc2)c1[N+](=O)[O-]`: the melting point is 102 to 104 °C.
Compound `O=P(c1ccccc1)(c1ccccc1)C(F)F` registered a melting point of 93 to 94 °C.
As to `CCN(CC)CCOC1c2ccccc2C(=O)N1c1ccccc1` (stereo not given), the melting point was 146 to 147 °C.
In turn, `CN(C)c1nc2c(ccc3ccccc32)s1` had a melting point of 136 to 138 °C.
With `COc1ccc(N2CCN(CC[C@H]3CC[C@H](NC(N)=O)CC3)CC2)c(Cl)c1Cl`, the melting point is 195 to 198 °C.
The value for `C=CCOc1ccc(C(=O)c2ccnn2C)c(Cl)c1Cl` was 118 to 119 °C.
Under `N#Cc1ccc2oc(CCCCCc3cc4cc(C#N)ccc4o3)cc2c1` stands 133 to 134 °C; under `CC(C)(C)OC(=O)NC1CCc2ccccc2C(F)C1=O` (stereo not given), 127 to 129 °C; under `CC(C)(Cc1cccc(C(=O)c2cccc(CC(C)(C)C(=O)O)c2)c1)C(=O)O`, 46 to 48 °C.
The value for `O=C(O)c1cccc2nc(OCC(F)(F)F)n(Cc3ccc(-c4ccccc4-c4nnn[nH]4)cc3)c12` was 204 to 206 °C; that for `CC(C)n1cc(-c2ccc(C(O)c3ccccc3)cc2)c2c(N)ncnc21` (stereo not given) was 279 to 281 °C; that for `NC(=O)c1cccc(NS(=O)(=O)c2ccc([N+](=O)[O-])cc2)c1` was 240 to 244 °C.
Turning to `CCOC(=O)NC1(c2ccccc2Cl)CCCCC1=O` (stereo not given), the melting point lay in the range of 112 to 114 °C.
For `CC(C)c1nn(-c2ccc(C(F)(F)F)cn2)cc1CCCCOS(C)(=O)=O`, the melting point was 87 to 89 °C.
For the compound `CC(C)(C)c1cc(CCc2ccc(NC(=O)Nc3ccccc3)cc2)cc(C(C)(C)C)c1O`, the melting point lay in the range of 206 to 207 °C.
Compound `O=C(Nc1c[nH]nc1C(=O)NCCSc1ccccn1)c1ccccn1` showed a melting point of 162 to 163 °C.
For `CC1(CC(=O)O)CCCC1=O` (stereo not given), the melting point lay within 70 to 72 °C.
The value for `O=C1NC(OC(=O)c2ccccc2)C2=C1c1ccc(Cl)cc1C(c1ccccc1Cl)=NC2` (stereo not given) was 140 to 142 °C.
In turn, `O=C(Nc1cccc2c3c(oc12)CCC=C3)c1c(Cl)cccc1Cl` yielded a melting point of 165 to 167 °C.
For the compound `CCOC(=O)N(c1ccc(Cl)cc1Cl)c1ccc(Cl)cc1-n1nc(C(=O)O)nc1CCl`, the melting point was found to be 186 °C.
Consider `CC(C)(C)OC(=O)Nc1cc(CC#N)c(C#Cc2ccccc2)cc1[N+](=O)[O-]`, for which the melting point came out at 166 °C.
In the case of `CNc1nc2ccccc2cc1N`, the melting point is 133 to 136 °C.
As for `CC(C)n1nc(-c2c(OCCN)nc(N)nc2-c2ccccc2)ccc1=O`, the melting point was in the range of 213 to 216 °C.
As to `O=C(Nc1ccc(F)cc1)Nc1nc(Nc2ccc(Cl)cc2)sc1C(=O)c1ccc(Cl)cc1Cl`, the melting point is over 280 °C.
In turn, `CC(C)(O)COc1c(-c2ccc(S(C)(=O)=O)cc2)cnn(-c2ccc(Cl)c(Cl)c2)c1=O` displayed a melting point of 108 to 110 °C.
Take `CC(C)(CCC(=O)N[C@H](Cc1ccc(-c2ccccc2)cc1)C(=O)NCCCCNc1ncccn1)C(=O)O`: the melting point lay in the range of 85 to 98 °C.
Take `CCCC(=O)c1cnc2c(OC)cccc2c1Nc1ccccc1C`: the melting point fell in the range of 215 to 217 °C.
Regarding `Fc1ccc(CCCC(c2ccc(F)cc2)c2c[nH]cn2)cc1` (stereo not given), the melting point was in the range of 135 to 137 °C.
For the compound `CS(=O)(=O)Nc1ccc(CCCOCCCCCCNCC(O)c2cc(O)cc(O)c2)cc1` (stereo not given), the melting point was 66 to 69 °C.
As to `COC=C(C(=O)OC)c1ccccc1O`, the melting point fell in the range of 125 to 126 °C.
As for `Nc1nc2ccccc2c2c1ncn2CCCCNC(=O)c1ccccc1Oc1ccccc1`, the melting point lay within 93 to 94 °C.
Under `CC12CCC3C(CCC4CC=CCC43C)C1CCC2C#N` (stereo not given) stands 110 to 112 °C; under `COc1ncccc1-c1ncc(OC2SCC(O)C(O)C2O)cc1F` (stereo not given), 141 °C; under `CC(C)(C)NC(=O)c1ccc(S(=O)(=O)N2C(=O)C(C)(c3ccccc3Cl)c3cc(OCC(F)(F)F)ccc32)cc1` (stereo not given), 134 °C.
Compound `Cc1cc(C)c2c(n1)CC(c1ccccc1C)CC2=O` (stereo not given) had a melting point of 106 to 107 °C.
Compound `CCC(=O)OCOC(=O)C1=C(C)NC(C)=C(C(=O)OC)C1c1cccc(Cl)c1Cl` (stereo not given) had a melting point of 124 to 126 °C.
For the compound `CCn1cc(C(=O)O)c(=O)c2cc(F)c(N3CCN(C)C(c4cc5cc(Cl)ccc5o4)C3)cc21` (stereo not given), the melting point was 248 to 249 °C.
Under `C=C(CCC(C)C1CCC2(O)C3=C(C(=O)CC12C)C1(C)CCC(=O)C(C)C1CC3O)C(C)C(=O)O` (stereo not given) stands 175 to 177 °C.
`N#Cc1ccccc1-c1cc(-c2cnc3nccnn23)ccc1F` showed a melting point of 211 to 215 °C.
Under `CCCNC(=S)NS(=O)(=O)c1c(NC(=O)OCC)sc(C)c1C#N` stands 167 to 168 °C; under `CCOC(=O)C1=C(C)NC(SCc2ccc(OC)cc2)=NC1c1cccc([N+](=O)[O-])c1` (stereo not given), 95 to 97 °C; under `Cc1c(NC(=O)CC(C)(C)C)cc2c(c1C)OC(C)(C)C2(O)Cc1ccccc1` (stereo not given), 212 to 213 °C.
`Cc1c(NCCCCNCC(O)COc2ccccc2)n(C)c(=O)n(C)c1=O` (stereo not given) had a melting point of 148 to 150 °C.
Consider `CCOC(=O)C(NC(=O)CNC(N)=O)C(=O)OCC`, for which the melting point lay within 140 to 142 °C.
`Cc1cccc(C(=O)Nc2cc(-c3c(-c4ccc(F)c(C)c4)nc4cccnn34)ccn2)c1` registered a melting point of 203 to 204 °C.
Regarding `CCCc1nc(C)nc(O)c1Cc1ccc([N+](=O)[O-])cc1`, the melting point is 200 °C.
With `CCc1cc([N+](=O)[O-])c(N)cc1Cl`, the melting point is 100 to 101 °C.
Compound `CNC(=O)C(=NOC)c1cc(C)c(C)cc1C(ON)=C(C)c1cccc(C(F)(F)F)c1` registered a melting point of 129 to 134 °C.
Under `COc1ccc(CN2C(=O)[C@@H](NC(=O)Cc3ccccc3)[C@H]2CI)c(OC)c1` (relative stereo) stands 181 to 182 °C; under `CN1C(=C(C#N)C#N)Oc2ccccc21`, 198 to 200 °C; under `CC1(c2ccccc2)C(=O)c2c(cc(OCC(=O)O)c(Cl)c2Cl)C1c1ccccc1` (stereo not given), 203 to 205 °C.
In turn, `CCOC(=N)c1ccccc1-c1ccc(Cn2c(OCC)nc3cccc(C(=O)OC)c32)cc1` returned a melting point of 105 to 106 °C.
The compound `O=C(NCCc1ccccc1CO)c1ccc([N+](=O)[O-])cc1` had a melting point of 137 to 138 °C.
In turn, `CC1=CC(c2cccc(Br)c2)C2=C(CCCC2=O)N1` (stereo not given) returned a melting point of 187 to 191 °C.
In turn, `Clc1cc(CC2(Cc3ccnc(Cl)c3)c3ccccc3-c3ncccc32)ccn1` displayed a melting point of 188 to 190 °C.
In turn, `CCOC(=O)C(C)Oc1ccc2cc(Oc3c(Cl)cc(C(F)(F)F)cc3Cl)ccc2c1` (stereo not given) registered a melting point of 118 to 120 °C.
Compound `Cc1ccc(C2(CC(=O)O)CNC(=O)C2)cc1` (stereo not given) gave a melting point of 184 to 186 °C.
Turning to `N#CC(C(=O)c1cccnc1)c1ccccc1` (stereo not given), the melting point was 148 to 149 °C.
In turn, `O=Cc1c(F)ccc(Cl)c1Cl` registered a melting point of 55 to 57 °C.
On to `Cc1nc(-c2ccc(CN3C(=O)C4(COc5cc6c(cc54)CCO6)c4ccccc43)cc2)no1` (stereo not given), for which the melting point fell in the range of 185 to 186 °C.
Regarding `C[C@@H](NC(=O)c1sc(-c2ccc(C#N)cc2)nc1C(F)(F)F)[C@](O)(Cn1cncn1)c1ccc(F)cc1F`, the melting point was in the range of 101 to 108 °C.
`NNc1ccc(C(=O)c2ccccc2)cc1[N+](=O)[O-]` came in with a melting point of 163 to 164 °C.
`CN1CC(CCN(C)c2ccccc2)Oc2ncccc2C1=S` (stereo not given) gave a melting point of 164 to 165 °C.
With `CCOC(=O)C=C(Nc1cn[nH]c1)C(=O)OCC`, the melting point lay in the range of 69 to 71 °C.
Under `CCOC(=O)C(=CNC1CC1)C(=O)c1cc(F)c(Cl)cc1Cl` stands 89 to 90 °C; under `O=C1Cn2ncnc2-c2sccc2N1`, 213 to 215 °C.
The compound `CC(=O)OCC12CCC(OC(C)=O)CC1CCC1C2CCC2(C)C(OC(=O)C(C)(C)C)CCC12O` (stereo not given) returned a melting point of 155 to 156 °C.
`CC1(C)C(C=C2CCSC2=O)C1C(=O)OC(C#N)c1ccc(F)c(Oc2ccccc2)c1` (stereo not given): the melting point is 131 °C.
The compound `Cc1cc(-c2nc3cccnn3c2-c2ccnc(NC(=O)c3cccc4ccccc34)c2)ccc1F` yielded a melting point of 252 to 253 °C.
With `COc1cc2c3ccc(OC)c(OC)c3n(Cc3ccc(C#N)cc3)c2cc1OC`, the melting point lay in the range of 147 to 148 °C.
The value for `c1ccc(CCN2CCN(c3n[nH]c4c3CCc3sccc3-4)CC2)cc1` was 145 to 147 °C; that for `CC(=O)Nc1ccc(C(=O)OC2C=C(C)C(=O)CC(C)(C)C2O)cc1` (stereo not given) was 134 to 135 °C.
